Laboratory results from US20250326718A1, “4-PHENYL-2-PYRROLIDINONES AND METHODS OF USING THEREOF” (North Carolina State University, priority 2022, published 2025).
Values after ≈ are worked out from the molar mass of the structure shown. Structures can show the parent of a compound that is named as a salt. Where two headings read alike, the source gives them in different places.

Experiments:
[1] = system: MRSA (ATCC 33591); assay: Broth microdilution MIC, MRSA ATCC 33591; format: cell-based; details: Staphylococcus aureus; Table 1, Compounds 1-15; preliminary data, modified non-standard conditions (pH 9), solubility-limited
Experimental: (§1) General information—Biological Assays. Methicillin-resistant and methicillin sensitive Staphylococcus aureus (MRSA and MSSA respectively) strains were obtained from the Laboratory of Professor Christian Melander (NCSU) (ATCC BAA 44 and 33591) and Dr. Jessica Gilbertie (ATCC 25923). Bacteria were kept in frozen stocks on glycerol at −80° C. until use. Bacteria was streaked onto tryptic-soy agar for colony isolation. Mueller-Hinton broth (MHB, 211443-BD), tryptic soy broth (TSB, Remel: R455052) and D-glucose (CAS: 492-62-6) were purchased from Fisher Scientific. Tryptic soy agar (TSA, cat. #22091) and Linezolid (cat. #P70014) were purchased from Sigma-Aldrich. Bacteria for biofilm inhibition were cultured overnight in TSB-G (tryptic soy broth with 0.5% glucose supplement) in 96 well plates. All assays were run in duplicate and repeated at least two separate times for MIC assays and at least three separate times for biofilm inhibition. All compounds were dissolved in molecular biology grade DMSO as 10 mM stock solutions. Optical densities were measured using a Thermo Scientific Genesys 20 spectrophotometer. Data for biofilm inhibition were collected using a BioTek ELx808 Microplate Reader. All graphs were generated and analyzed using GraphPad Prism 7.
Broth microdilution method for determination of minimum inhibitory concentrations. As prescribed by the Clinical and Laboratory Standards Institute (CLSI) M07-A8, Vol. 29 (2) MSSA (ATCC 25923) and MRSA (ATCC BAA 44 and 33591) was grown in MHB for 6-8 h; this culture was used to inoculate fresh MHB (5×10^5 CFU/mL). The resulting bacterial suspension was aliquoted (1 mL) into 1.5 mL Eppendorf tubes and compound was added from a 10 mM DMSO stock to achieve the desired initial starting concentration (typically 128 μg/mL). Linezolid (from a 10 mM DMSO stock) was used as a positive control. Inoculated media not treated with compound served as the negative control. The MIC was determined by microbroth dilution following the CLSI guidelines. The MIC was defined as the lowest concentration of antibiotic with no visible growth. The plate was sealed and incubated under stationary conditions at 37° C.
The antimicrobial activity of Compounds 1-15 was assessed initially against MSSA (ATCC 25923) and MRSA (ATCC 33591) strains. It was observed that almost all these compounds precipitated in aqueous solution at concentrations equal or higher than 8-16 μg/mL. In order to obtain preliminary results on the antimicrobial activity for these compounds, the standard conditions of the antimicrobial assays used where modified to favor the water solubility of these compounds.

[2] = system: MRSA (ATCC BAA 44) biofilm; assay: Inhibition of MRSA biofilm formation (crystal violet); format: cell-based; details: Staphylococcus aureus, 24 h, Table 1
Experimental: as §1
Determination of the inhibitory effect of test compounds on MRSA biofilm formation. Inhibition assays were performed using a procedure adapted from S. A. Rogers and C. Melander, Angew. Chem. Int. Ed., 2008, 47, 5229-5231, which is hereby incorporated herein by reference. Briefly, the inhibition assays were performed by subculturing an overnight culture of MRSA (ATCC BAA 44) to an OD600 of 0.01 in TSB-G (tryptic soy broth with a 0.5% glucose supplement). Stock solutions of predetermined concentrations of the test compound were then made using the inoculated TSB-G. These stock solutions were aliquoted (100 μL) into the wells of the 96-well microtiter plate. Sample plates were sealed then incubated for 24 h at 37° C. After incubation, the medium was discarded from the wells and the plates were washed 2× with PBS. Prior to staining, plates were left to dry at ambient temperature for 2-3 h. Plates were then stained with 0.1% solution of crystal violet (CV, 125 μL) and then incubated at ambient temperature for 30 min. Plates were washed with PBS again and the remaining stain was solubilized with 99% ethanol (200 μL). A sample of solubilized CV stain (110 μL) from each well was transferred to the corresponding wells of a polystyrene microtiter dish. Biofilm biomass was quantified by measuring the OD540 of each well and inhibition was calculated as a percentage of the control (no compound); a negative control lane wherein no biofilm was formed served as a background and was subtracted out. Percent inhibition was then plotted against concentration in Prism 7. Each of the four experiments were plotted separately and S15 analyzed by a normalized nonlinear regression. The graphs on the following pages were generated from an average of the total data set. Biofilm data represent four separate experiments, with each experiment performed in duplicate (average of 8 data points for each concentration tested, unless otherwise noted).

[3] = system: MSSA (ATCC 25923); assay: Broth microdilution MIC, MSSA ATCC 25923; format: cell-based; details: Staphylococcus aureus, read-out: MIC value against MSSA ATCC 25923
[4] = system: MSSA (ATCC 25923) biofilms; assay: Minimum Biofilm Eradication Concentration (MBEC), Calgary Biofilm Device; format: cell-based, Staphylococcus aureus; details: antibiotic alone
Experimental: MBEC concentrations were measured using a procedure adapted from H. Ceri, et al., J Clin. Microbiol., 1999, 1771-1776, which is hereby incorporated herein by reference. Briefly, biofilm eradication experiments were performed using MSSA (ATCC 25923) and the Calgary Biofilm Device (CBD) to determine MBEC values for various compounds of interest (Innovotech, product code: 19111). The Calgary device is a 96-well plate with a lid containing 96 pegs that sit in the media contained in the bottom well. Biofilm are established on the individual pegs. The established biofilm (contained on the individual peg) can then be transferred to a new base well for MBEC testing. For the MBEC assay, an overnight culture of MSSA (ATCC 25923) was adjusted to 0.5 McFarland in MHB-G. The CBD was inoculated with 100 μL of the 0.5 McFarland and incubated at 37° C. for 24 hours to establish biofilms. The CBD lid containing the established biofilms on individual pegs was removed, washed 3× with PBS and transferred to another 96-well plate containing serial dilutions of the test compounds (the “challenge plate”) and incubated at 37° C. for 24 hours. […] The plate was then sonicated for sonicated for 30 minutes to disperse biofilms on S16 the pegs into the fresh MHB in the base well. After sonication, the plate was incubated for 24 hours at 37° C.

Row | Structure (SMILES) | MIC [1] | inhibition at 5 µM [2] | inhibition at 40 µM [2] | MIC ([3]; antibiotic alone) | MBEC value against MSSA ATCC 25923 [4] | MIC [3]
1 | CCC1C(c2ccc(C(F)(F)F)cc2)=C(O)C(=O)N1c1cccnc1 (stereo not shown) [Compound 6, 5-Ethyl-3-hydroxy-1-(pyridin-3-yl)-4-(4-(trifluoromethyl)phenyl)-1,5-dihydro-2H-pyrrol-2-one] | > 128 µg/mL | 4% | 31% |  |  | 
2 | Cc1onc(-c2ccccc2)c1C(=O)N[C@@H]1C(=O)N2[C@@H]1SC(C)(C)[C@@H]2C(=O)O [Oxacillin, oxacillin sodium monohydrate, reference compound] |  |  |  | 0.5 µg/mL | 2048 pug/mL | 
3 | CCC1C(c2ccc(C(F)(F)F)cc2)=C(O)C(=O)N1c1ccc(Br)cc1 (stereo not shown) [Compound 3, 1-(4-Bromophenyl)-5-ethyl-3-hydroxy-4-(4-(trifluoromethyl)phenyl)-1,5-dihydro-2H-pyrrol-2-one] | 32 µg/mL (≈ 75.1 µM) | 34% | 72% |  |  | 
4 | CCC1C(c2ccc(C(F)(F)F)cc2)=C(O)C(=O)N1CCc1ccccc1 (stereo not shown) [Compound 8, 5-Ethyl-3-hydroxy-1-phenethyl-4-(4-(trifluoromethyl)phenyl)-1,5-dihydro-2H-pyrrol-2-one] | > 128 µg/mL | 23% | 46% |  |  | 
5 | CCC1C(c2ccc(C(F)(F)F)cc2)=C(O)C(=O)N1c1ccc(OC)c(OC)c1 (stereo not shown) [Compound 5, 1-(3,4-Dimethoxyphenyl)-5-ethyl-3-hydroxy-4-(4-(trifluoromethyl)phenyl)-1,5-dihydro-2H-pyrrol-2-one] | > 128 µg/mL | 17% | 70% |  |  | 
6 | CC1C(c2ccc(C(F)(F)F)cc2)=C(O)C(=O)N1c1ccccc1 (stereo not shown) [Compound 2, 3-Hydroxy-5-methyl-1-phenyl-4-(4-(trifluoromethyl)phenyl)-1,5-dihydro-2H-pyrrol-2-one] | 32 µg/mL (≈ 96 µM) | -26% | 72% |  |  | 
7 | CN[C@H](CC(C)C)C(=O)N[C@H]1C(=O)N[C@@H](CC(N)=O)C(=O)N[C@H]2C(=O)N[C@H]3C(=O)N[C@H](C(=O)N[C@H](C(=O)O)c4cc(O)cc(O)c4-c4cc3ccc4O)[C@H](O)c3ccc(c(Cl)c3)Oc3cc2cc(c3O[C@@H]2O[C@H](CO)[C@@H](O)[C@H](O)[C@H]2O[C@H]2C[C@](C)(N)[C@H](O)[C@H](C)O2)Oc2ccc(cc2Cl)[C@H]1O [Vancomycin, vancomycin hydrochloride, reference compound] |  |  |  |  | 2048 pug/mL | 0.5 µg/mL

Second part, led by results:

Row | MIC [1] | Structure (SMILES) | inhibition at 5 µM [2] | inhibition at 40 µM [2] | MIC ([3]; antibiotic alone) | MBEC value against MSSA ATCC 25923 [4] | MIC [3]
8 | > 128 µg/mL | CC(C)C1C(c2ccc(C(F)(F)F)cc2)=C(O)C(=O)N1c1ccccc1 (stereo not shown) [Compound 10, 3-Hydroxy-5-isopropyl-1-phenyl-4-(4-(trifluoromethyl)phenyl)-1,5-dihydro-2H-pyrrol-2-one] | -5% | 3% |  |  | 
9 | > 128 µg/mL | CCC1C(c2ccc(C(F)(F)F)cc2)=C(O)C(=O)N1CCC(C)C (stereo not shown) [Compound 14, 5-Ethyl-3-hydroxy-1-isopentyl-4-(4-(trifluoromethyl)phenyl)-1,5-dihydro-2H-pyrrol-2-one] | 47% | 43% |  |  | 
10 | 16 µg/mL (≈ 46.1 µM) | CCC1C(c2ccc(C(F)(F)F)cc2)=C(O)C(=O)N1c1ccccc1 (stereo not shown) [Compound 1, 5-Ethyl-3-hydroxy-1-phenyl-4-(4-(trifluoromethyl)phenyl)-1,5-dihydro-2H-pyrrol-2-one] | 5% | 85% |  |  | 
11 | > 128 µg/mL | CCC1C(c2ccc(C(F)(F)F)cc2)=C(O)C(=O)N1Cc1ccc(OC)cc1OC (stereo not shown) [Compound 15] | 63% | 57% |  |  | 
12 | > 128 µg/mL | CCC1C(c2ccc(C(F)(F)F)cc2)=C(O)C(=O)N1Cc1cccs1 (stereo not shown) [Compound 7, 5-Ethyl-3-hydroxy-1-(thiophen-2-ylmethyl)-4-(4-(trifluoromethyl)phenyl)-1,5-dihydro-2H-pyrrol-2-one] | 54% | 79% |  |  | 
13 | 16 µg/mL (≈ 43.8 µM) | CCC1C(c2ccc(C(F)(F)F)cc2)=C(O)C(=O)N1c1ccc(F)cc1 (stereo not shown) [Compound 4, 5-Ethyl-1-(4-fluorophenyl)-3-hydroxy-4-(4-(trifluoromethyl)phenyl)-1,5-dihydro-2H-pyrrol-2-one] | 22% | 81% |  |  | 
14 | 16 µg/mL (≈ 46.9 µM) | CCCCCN1C(=O)C(O)=C(c2ccc(C(F)(F)F)cc2)C1CC (stereo not shown) [Compound 11, 5-Ethyl-3-hydroxy-1-pentyl-4-(4-(trifluoromethyl)phenyl)-1,5-dihydro-2H-pyrrol-2-one] | 58% | 63% |  |  | 
